ChEMBL document CHEMBL1201862, “PubChem BioAssay data set” (2004)
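Compound exposure: 48 hours, 5 concentrations, 96-well plates. GI50 = concentration required for 50% inhibition of growth.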 The source made the active and inactive calls. Cut-off read from the data, not from the text of the source: active = GI50 up to about 1.1 µM and inactive = higher.

Tests used:
Experiment in all cases: NCI anticancer screen, dose series, 48 h
HCC 2998 = tested on: HCC 2998
SK-OV-3 = tested on: SK-OV-3
HOP-62 = tested on: HOP-62
ACHN = tested on: ACHN
SF-295 = tested on: SF-295
U-251 = tested on: U-251
HOP-92 = tested on: HOP-92
MCF7 = tested on: MCF7
SR = tested on: SR
OVCAR-4 = tested on: OVCAR-4
TK-10 = tested on: TK-10
NCI-H23 = tested on: NCI-H23
CCRF-CEM = tested on: CCRF-CEM
K562 = tested on: K562
DU-145 = tested on: DU-145
OVCAR-3 = tested on: OVCAR-3
MDA-N = tested on: MDA-N
UACC-257 = tested on: UACC-257

Measured: GI50

Cc1ccc(S(=O)(=O)NC(=O)Nc2nnc(S(N)(=O)=O)s2)cc1
active: CCRF-CEM < 0.01 µM
inactive: HCC 2998 > 100 µM | SK-OV-3 > 100 µM | HOP-62 > 100 µM | ACHN > 100 µM | SF-295 > 100 µM | U-251 > 100 µM | HOP-92 > 100 µM | MCF7 > 100 µM | SR > 100 µM | OVCAR-4 > 100 µM | TK-10 > 100 µM | NCI-H23 > 100 µM | K562 > 100 µM | DU-145 > 100 µM | OVCAR-3 > 100 µM

CN(C)c1ccc(NN=C2SC(=N\c3ccccc3)/C(=N/c3ccccc3)S2)cc1
inactive: MDA-N 20.3 µM | HCC 2998 26.6 µM | SK-OV-3 > 100 µM | HOP-62 > 100 µM | UACC-257 8.2 µM | ACHN > 100 µM | SF-295 > 100 µM | U-251 > 100 µM | HOP-92 22.8 µM | OVCAR-4 30.2 µM | TK-10 > 100 µM | NCI-H23 12.1 µM | CCRF-CEM 5.2 µM | DU-145 > 100 µM

CCN(CCCl)c1cc(CN(C)C)cc(NC(=O)C23CCC(C(=O)Nc4cc(CN(C)C)cc(N(CC)CCCl)c4)(CC2)CC3)c1
active: SK-OV-3 0.372 µM | HOP-62 0.372 µM | U-251 0.764 µM | MCF7 0.0255 µM | SR 0.0329 µM | NCI-H23 0.424 µM | CCRF-CEM < 0.01 µM | K562 0.738 µM | DU-145 0.804 µM
inactive: MDA-N 1.12 µM | HCC 2998 1.33 µM | UACC-257 3.96 µM | ACHN 2.22 µM | SF-295 1.59 µM | HOP-92 1.43 µM | OVCAR-4 1.4 µM | TK-10 8.49 µM

O=C1OC2C(O)C(=O)OC2C1O (configuration not stated)
inactive: MDA-N > 100 µM | HCC 2998 > 100 µM | SK-OV-3 > 100 µM | HOP-62 > 100 µM | UACC-257 > 100 µM | ACHN > 100 µM | SF-295 > 100 µM | U-251 > 100 µM | HOP-92 > 100 µM | MCF7 > 100 µM | SR > 100 µM | OVCAR-4 > 100 µM | NCI-H23 > 100 µM | CCRF-CEM > 100 µM | K562 > 100 µM | DU-145 > 100 µM | OVCAR-3 > 100 µM

COc1ccc(C2OC2C(=O)C23CC4CC(CC(C4)C2)C3)cc1 (configuration not stated)
inactive: MDA-N 37.8 µM | HCC 2998 31 µM | HOP-62 31.1 µM | UACC-257 54.6 µM | ACHN > 100 µM | SF-295 33.7 µM | U-251 36.1 µM | HOP-92 19.1 µM | MCF7 47.9 µM | OVCAR-4 > 100 µM | TK-10 > 100 µM | NCI-H23 76 µM | CCRF-CEM 60.7 µM | K562 27.2 µM | DU-145 90.8 µM | OVCAR-3 > 100 µM

CC1=CC(c2ccccc2)OP1(=O)c1ccccc1 (configuration not stated)
inactive: MDA-N > 100 µM | HCC 2998 > 100 µM | SK-OV-3 > 100 µM | HOP-62 > 100 µM | UACC-257 > 100 µM | ACHN > 100 µM | SF-295 > 100 µM | U-251 > 100 µM | HOP-92 > 100 µM | MCF7 > 100 µM | SR > 100 µM | OVCAR-4 > 100 µM | TK-10 > 100 µM | NCI-H23 > 100 µM | K562 > 100 µM | DU-145 > 100 µM | OVCAR-3 > 100 µM

CNC1(C(=O)O)CC1
inactive: MDA-N > 100 µM | HCC 2998 > 100 µM | HOP-62 > 100 µM | UACC-257 > 100 µM | ACHN > 100 µM | SF-295 > 100 µM | U-251 > 100 µM | HOP-92 > 100 µM | MCF7 > 100 µM | SR > 100 µM | OVCAR-4 > 100 µM | TK-10 > 100 µM | NCI-H23 > 100 µM | CCRF-CEM > 100 µM | K562 > 100 µM | DU-145 > 100 µM | OVCAR-3 > 100 µM

CN(CCc1ccccn1)C(=S)N/N=C/c1ccccn1
active: MDA-N 0.551 µM | HCC 2998 0.23 µM | SK-OV-3 0.376 µM | HOP-62 0.0336 µM | UACC-257 < 0.0213 µM | ACHN 0.0366 µM | SF-295 0.147 µM | HOP-92 0.105 µM | MCF7 < 0.01 µM | SR < 0.01 µM | OVCAR-4 0.112 µM | TK-10 0.043 µM | NCI-H23 < 0.0275 µM | CCRF-CEM < 0.01 µM | K562 < 0.01 µM | DU-145 0.298 µM | OVCAR-3 < 0.01 µM

COc1c(CC(C)=O)ccc2c1C(=O)c1ccc(C=O)c(OC(C)=O)c1C2=O
inactive: HCC 2998 11.5 µM | SK-OV-3 55.5 µM | UACC-257 14.3 µM | ACHN 15.1 µM | SF-295 21.2 µM | U-251 13.9 µM | HOP-92 18.9 µM | OVCAR-4 14.6 µM | TK-10 27.5 µM | NCI-H23 > 10 µM | CCRF-CEM 3.23 µM | K562 11.6 µM | OVCAR-3 13.1 µM

C/C(=N\Nc1nc2ccccc2[nH]1)c1ncccn1
active: MDA-N 0.388 µM | HCC 2998 0.721 µM | SK-OV-3 0.214 µM | UACC-257 0.136 µM | ACHN < 0.0232 µM | SF-295 0.0453 µM | U-251 0.0462 µM | HOP-92 0.0552 µM | MCF7 0.0321 µM | SR < 0.021 µM | OVCAR-4 0.0528 µM | NCI-H23 0.0621 µM | CCRF-CEM 0.0303 µM | K562 0.044 µM | OVCAR-3 0.871 µM
inactive: HOP-62 1.64 µM | TK-10 1.31 µM

C[C@@H]1CC[C@]2(C)C3(C)CC[C@]2(OC3=O)[C@@]12CC(c1ccoc1)OC2=O (some centres not stated)
inactive: MDA-N 34.4 µM | HCC 2998 > 100 µM | SK-OV-3 > 100 µM | HOP-62 > 100 µM | ACHN 22.4 µM | SF-295 > 100 µM | U-251 44.5 µM | HOP-92 32.8 µM | MCF7 61 µM | SR 34.8 µM | OVCAR-4 20.7 µM | TK-10 39 µM | NCI-H23 29.6 µM | CCRF-CEM 22.8 µM | K562 34 µM | DU-145 > 100 µM | OVCAR-3 26.2 µM

CC(=O)OC1CC[C@@]2(C)C(C1)CC(OC(C)=O)[C@@H]1C2CC(OC(C)=O)[C@]2(C)C(C(C)CC=C(c3ccc(Cl)cc3)c3ccc(Cl)cc3)CCC12 (some centres not stated)
inactive: MDA-N > 100 µM | HCC 2998 94 µM | SK-OV-3 > 100 µM | HOP-62 94.4 µM | UACC-257 38.6 µM | ACHN 23.3 µM | SF-295 52.1 µM | U-251 60.5 µM | MCF7 38.8 µM | SR 20.2 µM | OVCAR-4 76.6 µM | TK-10 80.4 µM | CCRF-CEM 16.3 µM | K562 15.2 µM
